Source: patent US20260167659A1, “STING AGONISTS” (LIGACHEM BIOSCIENCES INC., priority 2022, published 2026)

Key:
[1] = Normal cell cytotoxicity in CD34+ HSC, CellTiter-Glo; type: cell-based; conditions: human, CD34+ hematopoietic stem cells (HSCs), read-out: In vitro cell cytotoxicity in CD34+ HSC CC50
Experimental: The CD34^+ hematopoietic stem cells (HSCs) were purchased from […]™ (#70002.3). The cells (2×10^4 cells per well) were cultured in StemSpan™ SFEM II medium supplemented with StemSpan™ CD34+ Expansion Supplement (#02691) in a 6-well plate at 37° C. for 7 days. On day 3 or 4, an equal volume of fresh complete medium was added into the cell culture. On day 7, the cells (4×10^4 cells per well) were seeded in a 96-well white plate and rested for 24 hours in the same condition.
After 72 hours, the cell viability was measured using CellTiter-Glo Luminescent Cell Viability Assay (Promega, #G7573) according to the manufacture's instruction. The signal was detected using an EnVision Xcite multilabel reader and data were analyzed using GraphPad Prism 8 software.

hSTING HAQ variant = target: T1, hSTING HAQ variant (Homo sapiens, UniProt Q86WV6, G230A/H232R/R293Q/R71H); test: STING activation, THP1-Dual IRF3 reporter assay, hSTING-HAQ cells; type: cell-based; conditions: IRF3 luciferase reporter, 24 hours, read-out: STING activity using hSTING-HAQ cells, HAQ EC50
T1 construct: host or cells: THP1-Dual cells (human monocytes)
Experimental: To assess potency of STING agonist compounds described herein, THP1-Dual™ Cells (NF—KB-SEAP and IRF-Lucia luciferase reporter monocytes, InvivoGen) were used. The reporter cells were knocked-in either of hSTING-WT (R232, #thpd-r232), HAQ variant (#thpd-nfis), or H232 variant (#thpd-h232). All cells were cultured at 37° C. in a humidified incubator at 5% CO2 and maintained in RPMI 1640 medium (Gibco, #22400097) supplemented with 10% heat-inactivated FBS and 1×Pen-Strep (Gibco, #15140122). To measure STING agonist-mediated IRF3 activity, the cells (9.0×10^4 cells per well) were seeded in a flat-bottomed 96-well plate. The next day, the cells were treated with compounds in a serial dilution for 24 hours. Subsequently, 20 μL of the cell culture supernatant and 50 μL of the QUANTI-Luc™ reagent (InvivoGen, #rep-qlc) were mixed in a 96-well white plate and then, luciferase activity was measured using an EnVision Xcite multilabel reader. The data were analyzed using Prism8 software (4-parameter).
The potency of STING agonist compounds was evaluated by the activation of Type I Interferon pathway using THP-1 IRF3 reporter assay.

human STING = target: T2, human STING (Homo sapiens, UniProt Q86WV6, H232R); test: Direct STING binding, HUMAN STING WT BINDING KIT (Cisbio); conditions: direct binding to human STING WT protein in vitro; read-out: Binding potency EC50
T2 construct: purchased Cisbio 64BDSTGPEG
Source text: Additionally, for analysis of direct binding potency of STING agonist compounds described herein to human STING, HUMAN STING WT BINDING KIT (Cisbio, #64BDSTGPEG) was used according to the manufacture's instruction.

T1 sequence (Q86WV6 whole entry R71H/G230A/H232R/R293Q): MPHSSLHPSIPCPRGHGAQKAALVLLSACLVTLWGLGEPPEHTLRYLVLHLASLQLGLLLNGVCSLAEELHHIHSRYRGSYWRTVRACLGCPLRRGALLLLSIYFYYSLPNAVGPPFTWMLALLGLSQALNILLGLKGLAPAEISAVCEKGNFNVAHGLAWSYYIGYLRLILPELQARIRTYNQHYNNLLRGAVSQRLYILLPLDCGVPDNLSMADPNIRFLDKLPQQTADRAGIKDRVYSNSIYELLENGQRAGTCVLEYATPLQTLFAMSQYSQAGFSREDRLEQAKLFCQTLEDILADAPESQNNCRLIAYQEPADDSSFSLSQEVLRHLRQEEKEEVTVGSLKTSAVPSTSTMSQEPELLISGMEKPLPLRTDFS
T2 sequence (Q86WV6 whole entry H232R): as the sequence (Q86WV6 whole entry R71H/G230A/H232R/R293Q) above, with H71R, A230G, Q293R counted along it

EC50 (hSTING HAQ variant): 115 nM
EC50 (human STING): 0.08 nM
Compound: CCn1nc(C)cc1C(=O)Nc1nc2cc(C(N)=O)cc(OC/C=C/Cn3cc(NC(=O)OCc4ccc(O[C@@H]5O[C@H](C(=O)O)[C@@H](O)[C@H](O)[C@H]5O)c(C(=O)NCCOCCOCCN(C)C)c4)cn3)c2n1C/C=C/Cn1c(NC(=O)c2cc(C)nn2CC)nc2cc(C(N)=O)cc(OCCCC(=O)O)c21 [Compound 313]
CC50 at 72 h [1]: 44.5 nM
